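Step 1: Grow cells in 96-well plates. Step 2: Expose to compound for 48 hours at 5 concentrations. Step 3: Interpolate endpoints linearly; if unreached, use highest concentration. At the GI50, growth is halved.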 The source made the active and inactive calls. Cut-off read from the data, not from the text of the source: active = GI50 up to about 1.1 µM and inactive = higher.
Key:
Test in all cases: growth of human tumour cells (NCI), 48 h
[1] = system: KM-20L2
[2] = system: DLD-1
[3] = system: HOP-18
[4] = system: XF498
[5] = system: LXFL 529
[6] = system: M19-MEL
[7] = system: DMS-114
[8] = system: DMS-273
[9] = system: RXF 631

SMILES	GI50 [1]	GI50 [2]	GI50 [3]	GI50 [4]	GI50 [5]	GI50 [6]	GI50 [7]	GI50 [8]	GI50 [9]
OCC(O)C(O)C(O)c1nn(-c2ccc(F)cc2)c2nc3cc(Cl)c(Cl)cc3nc12 (stereo not given)	49.7 µM (inactive)	32.7 µM (inactive)	16.9 µM (inactive)	11.4 µM (inactive)	28.1 µM (inactive)	22 µM (inactive)	21.3 µM (inactive)	15.9 µM (inactive)	–
Brc1cc(C2OCCCO2)ccc1OCc1ccccc1	> 10 µM (inactive)	37 µM (inactive)	–	59.3 µM (inactive)	45.9 µM (inactive)	66.5 µM (inactive)	44.3 µM (inactive)	47.8 µM (inactive)	–
O=C1C=CC2(CCCCCCC2=O)CC1 (stereo not given)	> 100 µM (inactive)	> 100 µM (inactive)	> 100 µM (inactive)	–	> 100 µM (inactive)	> 100 µM (inactive)	–	> 100 µM (inactive)	–
O=C(/C=C/c1c(O)ccc2ccccc12)c1ccccc1Cl	> 100 µM (inactive)	31.1 µM (inactive)	–	23.3 µM (inactive)	31 µM (inactive)	14 µM (inactive)	19.9 µM (inactive)	34.3 µM (inactive)	–
CCCCCCCCC(=O)NCCCNCCCNC(=O)CCCCCCCC	2.53 µM (inactive)	2.93 µM (inactive)	11.9 µM (inactive)	3.18 µM (inactive)	3.35 µM (inactive)	3.93 µM (inactive)	3.78 µM (inactive)	2.56 µM (inactive)	–
CN(C)c1ccc(/C=C(/C(=O)O)c2csc(-c3nc(/C(=C\c4ccc(N(C)C)cc4)C(=O)O)cs3)n2)cc1	> 100 µM (inactive)	> 100 µM (inactive)	–	–	96.4 µM (inactive)	> 100 µM (inactive)	29.9 µM (inactive)	–	–
O=C1C2CC=CCC2C(=O)C12CCc1ccccc12 (stereo not given)	> 100 µM (inactive)	> 100 µM (inactive)	8.15 µM (inactive)	> 100 µM (inactive)	> 100 µM (inactive)	> 100 µM (inactive)	–	> 100 µM (inactive)	–
Cn1cnc([N+](=O)[O-])c1Sc1n[nH]c(-c2ccc(Cl)cc2)n1	–	18.4 µM (inactive)	1.47 µM (inactive)	10.1 µM (inactive)	11.7 µM (inactive)	19 µM (inactive)	18.2 µM (inactive)	16.9 µM (inactive)	20.7 µM (inactive)
OCC1OC2c3ccccc3COC2C1OCc1ccccc1 (stereo not given)	> 100 µM (inactive)	> 100 µM (inactive)	> 100 µM (inactive)	49.2 µM (inactive)	87.7 µM (inactive)	> 100 µM (inactive)	59.4 µM (inactive)	–	> 100 µM (inactive)
CCOC(=O)C(CCC(N)=O)(CCC(=O)OC)C(=O)OCC	> 100 µM (inactive)	> 100 µM (inactive)	> 100 µM (inactive)	> 100 µM (inactive)	> 100 µM (inactive)	> 100 µM (inactive)	> 100 µM (inactive)	> 100 µM (inactive)	–
COc1ccc(Nc2nc3ccc(C(F)(F)F)cc3nc2-c2ccccc2)cc1OC	–	30.5 µM (inactive)	–	49.1 µM (inactive)	43.2 µM (inactive)	–	38.7 µM (inactive)	32.4 µM (inactive)	39.6 µM (inactive)
COc1cc(CNc2cnc3ccc(N)cc3n2)cc(OC)c1OC	> 100 µM (inactive)	–	> 100 µM (inactive)	–	> 100 µM (inactive)	66.8 µM (inactive)	> 100 µM (inactive)	99.8 µM (inactive)	–
Cc1nc2nnnn2c2c1C(=O)Nc1ccccc1N2	> 100 µM (inactive)	> 100 µM (inactive)	> 100 µM (inactive)	> 100 µM (inactive)	> 100 µM (inactive)	> 100 µM (inactive)	> 100 µM (inactive)	> 100 µM (inactive)	–
COc1cccc(C(=O)N2CCc3ccccc32)c1OC	80.2 µM (inactive)	–	34.1 µM (inactive)	40.3 µM (inactive)	74 µM (inactive)	> 100 µM (inactive)	43.8 µM (inactive)	41 µM (inactive)	58.5 µM (inactive)
NC1(CCCCCCCCCCC(=O)O)CNCCNCCNCCNC1	24.9 µM (inactive)	40.7 µM (inactive)	–	–	–	39.6 µM (inactive)	28.8 µM (inactive)	–	–
CCc1c(C)[nH]c2c1/C(=N/N=C1\CCCc3[nH]c(C)c(CC)c31)CCC2	27 µM (inactive)	> 100 µM (inactive)	–	18.2 µM (inactive)	13.8 µM (inactive)	20.6 µM (inactive)	14.1 µM (inactive)	17.4 µM (inactive)	22.5 µM (inactive)
Cc1ccc(/N=C2\N=C(N3CC(C)OC(C)C3)c3ccccc32)cc1 (stereo not given)	27.5 µM (inactive)	41.3 µM (inactive)	–	24.3 µM (inactive)	18.9 µM (inactive)	36.1 µM (inactive)	–	28.1 µM (inactive)	34.9 µM (inactive)
Cc1ccc(C)c(NC(=O)CC/C(=N\NC(=O)c2c(O)ccc3ccccc23)C(C)C(=O)c2ccc(O)cc2)c1 (stereo not given)	15.1 µM (inactive)	52.5 µM (inactive)	14.3 µM (inactive)	44.3 µM (inactive)	30.5 µM (inactive)	–	–	26.9 µM (inactive)	–
COc1ccc2c(c1)C(=O)N1CCOC1C2C(=O)O (stereo not given)	> 100 µM (inactive)	> 100 µM (inactive)	> 100 µM (inactive)	> 100 µM (inactive)	> 100 µM (inactive)	> 100 µM (inactive)	> 100 µM (inactive)	0.693 µM (active)	> 100 µM (inactive)
CC(O)CNC(=O)C(C)Oc1ccc(OCC2CCCCC2)cc1 (stereo not given)	–	–	> 100 µM (inactive)	> 100 µM (inactive)	> 100 µM (inactive)	> 100 µM (inactive)	46.3 µM (inactive)	> 100 µM (inactive)	–
CN(C)CCNC(=O)c1cccc2[nH]c(-c3cccnc3)nc12	–	22.2 µM (inactive)	25.2 µM (inactive)	–	–	20.2 µM (inactive)	–	20.7 µM (inactive)	–
COc1cc(C[P+](c2ccccc2)(c2ccccc2)c2ccccc2)cc(OC)c1OC	> 100 µM (inactive)	> 100 µM (inactive)	–	> 100 µM (inactive)	> 100 µM (inactive)	> 100 µM (inactive)	> 100 µM (inactive)	> 100 µM (inactive)	–
COC(=O)/C(=N\NC(N)=S)C(C#N)c1ccccc1 (stereo not given)	> 100 µM (inactive)	> 100 µM (inactive)	–	> 100 µM (inactive)	> 100 µM (inactive)	> 100 µM (inactive)	> 100 µM (inactive)	–	–
C/C1=C/C2OC(=O)C3(C)C2C(CC2(C)OC1=CC2=O)OC3(O)C(C)C (stereo not given)	21.8 µM (inactive)	32.7 µM (inactive)	37.8 µM (inactive)	23.7 µM (inactive)	27.4 µM (inactive)	34.4 µM (inactive)	14.3 µM (inactive)	33 µM (inactive)	33.1 µM (inactive)
Cn1c(=O)c2c(nc3n2CCC(=O)N3)n(C)c1=O	> 100 µM (inactive)	> 100 µM (inactive)	–	–	> 100 µM (inactive)	> 100 µM (inactive)	> 100 µM (inactive)	> 100 µM (inactive)	> 100 µM (inactive)
O=C(NCCCC/N=c1/cccccc1NCCCCNC(=O)OCc1ccccc1)OCc1ccccc1	11 µM (inactive)	12.6 µM (inactive)	–	4.29 µM (inactive)	–	20.2 µM (inactive)	8.11 µM (inactive)	17.5 µM (inactive)	13.3 µM (inactive)
Clc1cccc(Cl)c1C1SCc2nc3ccccc3n21 (stereo not given)	43.2 µM (inactive)	51.1 µM (inactive)	> 100 µM (inactive)	> 100 µM (inactive)	> 100 µM (inactive)	> 100 µM (inactive)	25.2 µM (inactive)	14.6 µM (inactive)	15.4 µM (inactive)
CCCCCCCCCCCCSC(=S)c1c(C)[nH]n(-c2ccccc2)c1=O	10.2 µM (inactive)	2.3 µM (inactive)	> 50 µM (inactive)	–	9.12 µM (inactive)	–	6.84 µM (inactive)	–	13.2 µM (inactive)
